Measurements taken from ChEMBL document CHEMBL1145270 (Bioorg Med Chem Lett, 2005).

Key:
[1] = target: T1, Alpha-2C adrenergic receptor (Homo sapiens, UniProt P18825); assay: In vitro binding affinity measured by displacement of [3H]rauwolscine from alpha-2c adrenergic receptor expressed in CHO cells in presence of phentolamine; assay type: cell-based
T1 sequence (P18825 whole entry): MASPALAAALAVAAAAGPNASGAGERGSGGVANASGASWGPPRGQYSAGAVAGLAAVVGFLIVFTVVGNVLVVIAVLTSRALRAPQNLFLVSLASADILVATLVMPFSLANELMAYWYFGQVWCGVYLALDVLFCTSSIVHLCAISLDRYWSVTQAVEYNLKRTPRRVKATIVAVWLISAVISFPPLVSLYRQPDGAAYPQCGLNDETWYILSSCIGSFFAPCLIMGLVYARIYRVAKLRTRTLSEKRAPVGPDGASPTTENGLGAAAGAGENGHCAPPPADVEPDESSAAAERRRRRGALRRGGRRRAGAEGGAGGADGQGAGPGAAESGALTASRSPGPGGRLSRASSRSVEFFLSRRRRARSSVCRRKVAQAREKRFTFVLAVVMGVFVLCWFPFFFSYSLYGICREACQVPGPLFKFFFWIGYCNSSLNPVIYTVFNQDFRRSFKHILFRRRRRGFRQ

[2] = target: T2, Alpha-2B adrenergic receptor (Homo sapiens, UniProt P18089); assay: In vitro binding affinity towards alpha-2b adrenergic receptor
T2 sequence (P18089 whole entry): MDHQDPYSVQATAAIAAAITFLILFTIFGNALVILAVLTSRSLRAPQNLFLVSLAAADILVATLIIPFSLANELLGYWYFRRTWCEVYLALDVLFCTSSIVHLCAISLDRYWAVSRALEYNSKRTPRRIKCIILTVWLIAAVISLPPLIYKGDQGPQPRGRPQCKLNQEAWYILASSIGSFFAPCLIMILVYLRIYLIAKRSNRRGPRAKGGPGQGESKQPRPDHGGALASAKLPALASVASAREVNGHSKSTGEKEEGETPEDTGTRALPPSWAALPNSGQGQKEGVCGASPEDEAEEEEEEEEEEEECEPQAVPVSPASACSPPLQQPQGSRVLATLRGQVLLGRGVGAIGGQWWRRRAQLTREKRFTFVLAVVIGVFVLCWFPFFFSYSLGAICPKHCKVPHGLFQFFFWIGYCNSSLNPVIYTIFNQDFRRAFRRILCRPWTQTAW

[3] = target: T3, Alpha-2A adrenergic receptor (Homo sapiens, UniProt P08913); assay: In vitro binding affinity towards alpha-2a adrenergic receptor
T3 sequence (P08913 whole entry): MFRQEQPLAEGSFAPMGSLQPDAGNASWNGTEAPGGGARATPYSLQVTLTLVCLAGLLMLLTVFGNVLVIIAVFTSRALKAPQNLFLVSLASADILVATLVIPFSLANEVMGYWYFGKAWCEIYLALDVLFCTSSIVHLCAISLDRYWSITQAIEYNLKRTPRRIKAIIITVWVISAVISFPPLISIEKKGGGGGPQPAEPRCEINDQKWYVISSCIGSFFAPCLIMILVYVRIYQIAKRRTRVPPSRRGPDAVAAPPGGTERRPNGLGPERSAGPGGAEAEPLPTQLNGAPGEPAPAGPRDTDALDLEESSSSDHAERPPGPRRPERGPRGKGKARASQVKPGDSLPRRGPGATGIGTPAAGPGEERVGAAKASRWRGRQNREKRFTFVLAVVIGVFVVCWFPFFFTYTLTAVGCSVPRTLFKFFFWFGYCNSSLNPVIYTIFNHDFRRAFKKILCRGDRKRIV

Row | Structure (SMILES) | Ki [1] | Ki [2] | Ki [3]
1 | COC(=O)CNC(=O)CNC(=O)[C@@H]1C2C[C@H]3c4[nH]c5ccccc5c4CCN3C[C@@H]2CC[C@@H]1O (stereo partly specified) | 5.2 nM |  | 
2 | O=C(O)CCCNC(=O)[C@@H]1C2C[C@H]3c4[nH]c5ccccc5c4CCN3C[C@@H]2CC[C@@H]1O (stereo partly specified) | 3 nM |  | 
3 | CC(C)(C)OC(=O)NCCCNC(=O)[C@@H]1C2C[C@H]3c4[nH]c5ccccc5c4CCN3C[C@@H]2CC[C@@H]1O (stereo partly specified) | 2.8 nM |  | 
4 | NCCCNC(=O)[C@@H]1C2C[C@H]3c4[nH]c5ccccc5c4CCN3C[C@@H]2CC[C@@H]1O (stereo partly specified) | 32 nM |  | 
5 | O=C(CCCNC(=O)[C@@H]1C2C[C@H]3c4[nH]c5ccccc5c4CCN3C[C@@H]2CC[C@@H]1O)OCc1ccccc1 (stereo partly specified) | 0.65 nM | 1300 nM | 29 nM
6 | O=C(NCCCNC(=O)[C@@H]1C2C[C@H]3c4[nH]c5ccccc5c4CCN3C[C@@H]2CC[C@@H]1O)OCc1ccccc1 (stereo partly specified) | 1.1 nM |  | 
7 | COC(=O)CNC(=O)[C@@H]1C2C[C@H]3c4[nH]c5ccccc5c4CCN3C[C@@H]2CC[C@@H]1O (stereo partly specified) | 8 nM |  | 
8 | O=C(NCCCNC(=O)[C@@H]1C2C[C@H]3c4[nH]c5ccccc5c4CCN3C[C@@H]2CC[C@@H]1O)[C@H]1[C@@H]2C[C@@H]3c4[nH]c5ccccc5c4CCN3C[C@H]2CC[C@H]1O (stereo partly specified) | 8.5 nM |  | 
9 | O=C(O)[C@@H]1C2C[C@H]3c4[nH]c5ccccc5c4CCN3C[C@@H]2CC[C@@H]1O (stereo partly specified) | 19 nM |  | 
